Experimental data from PMC11702208 (RSC Advances, 2025).

Key:
[1] = system: IGROV1; experiment: NCI cytotoxicity screen; format: cell-based, human
[2] = system: HT29; experiment: NCI cytotoxicity screen; format: cell-based, human; details: HT-29
[3] = system: OVCAR-8; experiment: NCI cytotoxicity screen; format: cell-based, human
[4] = system: UACC-62; experiment: NCI cytotoxicity screen; format: cell-based, human
[5] = system: CAKI-1; experiment: NCI cytotoxicity screen; format: cell-based, human
[6] = system: NSC lung cancer subpanel tumor cell lines; experiment: NCI cytotoxicity screen, subpanel; format: cell-based, human; details: subpanel value, NSC lung cancer
[7] = system: NCI-H322M; experiment: NCI cytotoxicity screen; format: cell-based, human
[8] = system: HCC-2998; experiment: NCI cytotoxicity screen; format: cell-based, human
[9] = system: HOP-62; experiment: NCI cytotoxicity screen; format: cell-based, human
[10] = system: HOP-92; experiment: NCI cytotoxicity screen; format: cell-based, human
[11] = system: SR; experiment: NCI cytotoxicity screen; format: cell-based, human
[12] = system: SF-295; experiment: NCI cytotoxicity screen; format: cell-based, human
[13] = system: OVCAR-5; experiment: NCI cytotoxicity screen; format: cell-based, human
[14] = system: SF-268; experiment: NCI cytotoxicity screen; format: cell-based, human
[15] = system: HL-60(TB); experiment: cells; details: Homo sapiens
[16] = system: SK-MEL-2; experiment: NCI cytotoxicity screen; format: cell-based, human
[17] = system: HCT-116; experiment: NCI cytotoxicity screen; format: cell-based, human
[18] = system: SW-620; experiment: NCI cytotoxicity screen; format: cell-based, human
[19] = system: SNB-19; experiment: NCI cytotoxicity screen; format: cell-based, human
[20] = system: BT-549; experiment: NCI cytotoxicity screen; format: cell-based, human
[21] = system: Colon cancer subpanel tumor cell lines; experiment: NCI cytotoxicity screen, subpanel; format: cell-based, human; details: subpanel value, Colon cancer
[22] = system: EKVX; experiment: NCI cytotoxicity screen; format: cell-based, human
[23] = system: TK-10; experiment: NCI cytotoxicity screen; format: cell-based, human
[24] = system: OVCAR-3; experiment: NCI cytotoxicity screen; format: cell-based, human
[25] = system: CNS cancer subpanel tumor cell lines; experiment: NCI cytotoxicity screen, subpanel; format: cell-based, human; details: subpanel value, CNS cancer
[26] = system: MDA-MB-231/ATCC; experiment: NCI cytotoxicity screen; format: cell-based, human
[27] = system: HCT-15; experiment: NCI cytotoxicity screen; format: cell-based, human
[28] = system: Prostate cancer subpanel tumor cell lines; experiment: NCI cytotoxicity screen, subpanel; format: cell-based, human; details: subpanel value, Prostate cancer
[29] = system: MDA-MB-468; experiment: NCI cytotoxicity screen; format: cell-based, human
[30] = system: MALME-3M; experiment: NCI cytotoxicity screen; format: cell-based, human
[31] = system: NCI-H226; experiment: NCI cytotoxicity screen; format: cell-based, human
[32] = system: UO-31; experiment: NCI cytotoxicity screen; format: cell-based, human
[33] = system: OVCAR-4; experiment: NCI cytotoxicity screen; format: cell-based, human
[34] = system: MCF7; experiment: NCI cytotoxicity screen; format: cell-based, human
[35] = system: K-562; experiment: cells; details: Homo sapiens, K562
[36] = system: NCI/ADR-RES; experiment: NCI cytotoxicity screen; format: cell-based, human; details: Homo sapiens, five-dose
[37] = system: MDA-MB-435; experiment: NCI cytotoxicity screen; format: cell-based, human
[38] = system: SF-539; experiment: NCI cytotoxicity screen; format: cell-based, human
[39] = system: NCI-H23; experiment: NCI cytotoxicity screen; format: cell-based, human
[40] = system: COLO 205; experiment: NCI cytotoxicity screen; format: cell-based, human; details: 10.0 μM one dose; COLO-205
[41] = system: SNB-75; experiment: NCI cytotoxicity screen; format: cell-based, human; details: 10.0 μM one dose
[42] = system: T-47D; experiment: NCI cytotoxicity screen; format: cell-based, human; details: 10.0 μM one dose; T-47D
[43] = system: NCI-H460; experiment: NCI cytotoxicity screen; format: cell-based, human; details: 10.0 μM one dose
[44] = system: SN12C; experiment: NCI cytotoxicity screen; format: cell-based, human; details: 10.0 μM one dose; SN-12C
[45] = system: PC-3; experiment: NCI cytotoxicity screen; format: cell-based, human; details: 10.0 μM one dose

In the case of `COc1cc2ncnc(Nc3ccc(F)c(Cl)c3)c2cc1OCCCN1CCOCC1` [Gefitinib, reference compound], the GI50 ([1]; Homo sapiens, IGROV-1) is reported as 0.2 µM, the GI50 ([2]; Homo sapiens) is reported as 3.98 µM and the GI50 ([3]; Homo sapiens) is reported as 10 µM. The GI50 ([4]; Homo sapiens) was 5.01 µM, the GI50 ([5]; Homo sapiens) was 0.16 µM and the GI50 ([6]; Homo sapiens) was 2.1 µM. It also gave a GI50 [6] of 2.05 µM, a TGI [6] of 13.86 µM and a GI50 ([7]; Homo sapiens) of 0.08 µM. It also gave a GI50 ([8]; Homo sapiens, HCC 2998) of 10 µM, a GI50 ([9]; Homo sapiens) of 10 µM and a GI50 ([10]; Homo sapiens) of 7.94 µM. The GI50 ([11]; Homo sapiens) was 3.16 µM, the GI50 ([12]; Homo sapiens) was 1.99 µM and the GI50 ([13]; Homo sapiens, OVCAR-5) was 10 µM. For the same molecule, the GI50 ([14]; Homo sapiens) was 7.94 µM, the GI50 [15] was 5.01 µM and the GI50 ([16]; Homo sapiens) was 12.6 µM. It also gave a GI50 ([17]; Homo sapiens) of 7.94 µM, a GI50 ([18]; Homo sapiens) of 7.94 µM and a GI50 ([19]; Homo sapiens) of 12.6 µM. For the same molecule, the GI50 ([20]; Homo sapiens) was 7.94 µM, the GI50 ([21]; Homo sapiens) was 5.2 µM and the GI50 [21] was 5.23 µM. It also gave a TGI [21] of 18.47 µM, a GI50 ([22]; Homo sapiens) of 0.005 µM and a GI50 ([23]; Homo sapiens) of 0.1 µM. For the same molecule, the GI50 ([24]; Homo sapiens, OVCAR-3) was 5.01 µM, the GI50 ([25]; Homo sapiens) was 5.6 µM and the GI50 [25] was 5.64 µM. For the same molecule, the TGI [25] was 19.62 µM, the GI50 ([26]; Homo sapiens, MDA-MB-231) was 12.6 µM and the GI50 ([27]; Homo sapiens) was 5.01 µM. It also gave a GI50 ([28]; Homo sapiens) of 3.3 µM, a GI50 [28] of 3.29 µM and a TGI [28] of 31.62 µM. For the same molecule, the GI50 ([29]; Homo sapiens) was 0.01 µM, the GI50 ([30]; Homo sapiens, Malme-3M) was 3.16 µM and the GI50 ([31]; Homo sapiens) was 15.8 µM. The GI50 ([32]; Homo sapiens) was 1.25 µM, the GI50 ([33]; Homo sapiens, OVCAR-4) was 7.94 µM and the GI50 ([34]; Homo sapiens, MCF7) was 10 µM. The GI50 [35] was 2.51 µM, the GI50 [36] was 12.6 µM and the GI50 ([37]; Homo sapiens) was 3.16 µM. The GI50 ([38]; Homo sapiens) was 10 µM and the GI50 ([39]; Homo sapiens) was 15.8 µM.
`NS(=O)(=O)c1ccc(Cn2c(SCC(=O)NN=Cc3ccccc3O)nc3ccccc3c2=O)cc1` [Compound 6, 4-((2-((2-(2-(2-Hydroxybenzylidene)hydrazineyl)-2-oxoethyl)thio)-4-oxoquinazolin-3(4H)-yl)methyl)benzenesulfonamide] gave a GI % ([1]; 10.0 μM one dose, IGROV1) of 38%, a GI % [40] of 71% and a GI % ([2]; 10.0 μM one dose) of 14%. It also gave a GI % ([3]; 10.0 μM one dose) of 56%, a GI % ([4]; 10.0 μM one dose) of 62% and a GI % ([5]; 10.0 μM one dose) of 46%. For the same molecule, the GI % ([7]; 10.0 μM one dose) was 53%, the GI % ([8]; 10.0 μM one dose, HCC-2998) was 50% and the GI % [41] was 15%. For the same molecule, the GI % [42] was 67%, the GI % ([9]; 10.0 μM one dose) was 65% and the GI % ([10]; 10.0 μM one dose) was 46%. The GI % ([11]; 10.0 μM one dose) was 76%, the GI % ([12]; 10.0 μM one dose) was 35% and the GI % ([13]; 10.0 μM one dose, IGROV-5) was 32%. For the same molecule, the GI % ([14]; 10.0 μM one dose) was 62%, the GI % ([16]; 10.0 μM one dose) was 64% and the GI % ([17]; 10.0 μM one dose) was 58%. It also gave a GI % [43] of 51%, a GI % [44] of 44% and a GI % ([18]; 10.0 μM one dose) of 40%. The GI % ([19]; 10.0 μM one dose) was 45%, the GI % ([20]; 10.0 μM one dose) was 44% and the GI % ([22]; 10.0 μM one dose) was 40%. For the same molecule, the GI % ([23]; 10.0 μM one dose) was 47%, the GI % ([24]; 10.0 μM one dose, IGROV-3) was 87% and the GI % ([26]; 10.0 μM one dose, MDA-MB-231/ATCC) was 70%. The GI % ([27]; 10.0 μM one dose) was 25%, the GI % ([29]; 10.0 μM one dose) was 48% and the GI % ([30]; 10.0 μM one dose, MALME-3M) was 41%. It also gave a GI % ([31]; 10.0 μM one dose) of 43%, a GI % ([32]; 10.0 μM one dose) of 39% and a GI % ([33]; 10.0 μM one dose, IGROV-4) of 60%. The GI % ([34]; 10.0 μM one dose, MCF-7) was 50%, the GI % [45] was 33% and the GI % ([37]; 10.0 μM one dose) was 29%. The GI % ([38]; 10.0 μM one dose) was 46% and the GI % ([39]; 10.0 μM one dose) was 37%.
